pIC50: −log10 of the molar value.
Assays:
GCN2 kinase = GCN2 kinase (Homo sapiens (Human), UniProt Q9P2K8); test: Biochemical assay for GCN2 (TR-FRET kinase activity assay); details: 1 mM ATP, 3-hour incubation
Method: Activity of GCN2 kinase was determined using a TR-FRET kinase activity assay (e.g. Riddle et al. Analytical Biochemistry (2006) 356(1) 108-116). Assays were conducted in 384-well plates (13 μL assay volume) using 2 nM GCN2 (Carna Biosciences), 130 nM GFP-EIf2α (Invitrogen), 0.2 mg/mL E. coli tRNA (sigma) and 1 mM ATP in kinase buffer (Invitrogen). Inhibition of GCN2 was measured by adding serial diluted test compound (final assay concentration of 0.5% DMSO) followed by a 3-hour incubation. Tb-peIF2α (pSer52) antibody (Invitrogen) (2 nM final assay concentration) in kinase buffer containing ETDA (final assay concentration of 20 mM) was added. After a 60 min incubation at room temperature, TR-FRET was monitored using an excitation wavelength of 340 nm and emission wavelengths of 490 nm and 520 nm. The emission ratio (520/490) at each compound concentration of was converted to percent inhibition using controls (i.e. reaction with no test compound and reaction with a known inhibitor) and IC50 values were calculated by fitting a four-parameter sigmoidal curve to the data using Prism (GraphPad software).

PERK kinase = PERK kinase (Homo sapiens (Human), UniProt Q9NZJ5); test: Biochemical assay for PERK (coupled pyruvate kinase/lactate dehydrogenase assay); details: 1 mM ATP, rate from 2-3 h time frame
Sequence of PERK kinase (Q9NZJ5 other isoform, or with tags, fused parts or gaps): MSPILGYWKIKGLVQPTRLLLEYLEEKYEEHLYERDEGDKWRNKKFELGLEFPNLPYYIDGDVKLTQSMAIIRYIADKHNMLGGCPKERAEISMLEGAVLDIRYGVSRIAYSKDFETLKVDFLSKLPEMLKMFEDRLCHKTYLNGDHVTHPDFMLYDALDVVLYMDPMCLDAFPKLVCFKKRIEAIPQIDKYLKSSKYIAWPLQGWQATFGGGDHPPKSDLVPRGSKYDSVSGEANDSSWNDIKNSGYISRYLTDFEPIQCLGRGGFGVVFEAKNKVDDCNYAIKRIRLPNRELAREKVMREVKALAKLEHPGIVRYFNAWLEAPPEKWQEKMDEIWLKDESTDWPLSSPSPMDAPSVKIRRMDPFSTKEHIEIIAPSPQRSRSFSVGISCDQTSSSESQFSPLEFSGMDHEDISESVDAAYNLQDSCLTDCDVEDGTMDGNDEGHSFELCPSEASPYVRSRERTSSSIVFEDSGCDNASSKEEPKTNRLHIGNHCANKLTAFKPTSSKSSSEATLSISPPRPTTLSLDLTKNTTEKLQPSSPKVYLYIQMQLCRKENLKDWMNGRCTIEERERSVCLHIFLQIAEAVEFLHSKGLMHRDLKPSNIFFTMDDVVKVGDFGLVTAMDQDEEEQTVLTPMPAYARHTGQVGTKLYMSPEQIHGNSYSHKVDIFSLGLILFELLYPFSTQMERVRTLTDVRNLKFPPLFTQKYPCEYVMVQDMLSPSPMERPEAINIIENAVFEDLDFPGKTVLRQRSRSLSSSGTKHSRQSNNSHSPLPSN
Method: Activity of PERK kinase was determined spectroscopically using a coupled pyruvate kinase/lactate dehydrogenase assay that continuously monitors the ATP hydrolysis-dependent oxidation of NADH (e.g., Schindler et al. Science (2000) 289: 1938-1942). Assays were conducted in 384-well plates (100 μL final volume) using 10 nM PERK (from Beryllium), 0.25 mg/mL Myelin Basic Protein substrate, 1.5 units pyruvate kinase, 2.1 units lactate dehydrogenase, 1 mM phosphoenol pyruvate, 0.28 mM NADH and 1 mM ATP in assay buffer (100 mM Tris, pH 7.5, 15 mM MgCl2, 0.5 mM DTT, 0.004% (w/v) BSA, and 0.004% Triton X-100). Inhibition of PERK was measured by adding serial diluted test compound (final assay concentration of 1% DMSO). A decrease in absorption at 340 nm was monitored continuously for 6 hours at 30° C. on a multi-mode microplate reader (BioTek). The reaction rate was calculated using the 2-3 h time frame. The reaction rate at each concentration of compound was converted to percent inhibition using controls (i.e. reaction with no test compound and reaction with a known inhibitor) and IC50 values were calculated using software routines in Prism (GraphPad software).

Sequence of GCN2 kinase (Q9P2K8 whole entry): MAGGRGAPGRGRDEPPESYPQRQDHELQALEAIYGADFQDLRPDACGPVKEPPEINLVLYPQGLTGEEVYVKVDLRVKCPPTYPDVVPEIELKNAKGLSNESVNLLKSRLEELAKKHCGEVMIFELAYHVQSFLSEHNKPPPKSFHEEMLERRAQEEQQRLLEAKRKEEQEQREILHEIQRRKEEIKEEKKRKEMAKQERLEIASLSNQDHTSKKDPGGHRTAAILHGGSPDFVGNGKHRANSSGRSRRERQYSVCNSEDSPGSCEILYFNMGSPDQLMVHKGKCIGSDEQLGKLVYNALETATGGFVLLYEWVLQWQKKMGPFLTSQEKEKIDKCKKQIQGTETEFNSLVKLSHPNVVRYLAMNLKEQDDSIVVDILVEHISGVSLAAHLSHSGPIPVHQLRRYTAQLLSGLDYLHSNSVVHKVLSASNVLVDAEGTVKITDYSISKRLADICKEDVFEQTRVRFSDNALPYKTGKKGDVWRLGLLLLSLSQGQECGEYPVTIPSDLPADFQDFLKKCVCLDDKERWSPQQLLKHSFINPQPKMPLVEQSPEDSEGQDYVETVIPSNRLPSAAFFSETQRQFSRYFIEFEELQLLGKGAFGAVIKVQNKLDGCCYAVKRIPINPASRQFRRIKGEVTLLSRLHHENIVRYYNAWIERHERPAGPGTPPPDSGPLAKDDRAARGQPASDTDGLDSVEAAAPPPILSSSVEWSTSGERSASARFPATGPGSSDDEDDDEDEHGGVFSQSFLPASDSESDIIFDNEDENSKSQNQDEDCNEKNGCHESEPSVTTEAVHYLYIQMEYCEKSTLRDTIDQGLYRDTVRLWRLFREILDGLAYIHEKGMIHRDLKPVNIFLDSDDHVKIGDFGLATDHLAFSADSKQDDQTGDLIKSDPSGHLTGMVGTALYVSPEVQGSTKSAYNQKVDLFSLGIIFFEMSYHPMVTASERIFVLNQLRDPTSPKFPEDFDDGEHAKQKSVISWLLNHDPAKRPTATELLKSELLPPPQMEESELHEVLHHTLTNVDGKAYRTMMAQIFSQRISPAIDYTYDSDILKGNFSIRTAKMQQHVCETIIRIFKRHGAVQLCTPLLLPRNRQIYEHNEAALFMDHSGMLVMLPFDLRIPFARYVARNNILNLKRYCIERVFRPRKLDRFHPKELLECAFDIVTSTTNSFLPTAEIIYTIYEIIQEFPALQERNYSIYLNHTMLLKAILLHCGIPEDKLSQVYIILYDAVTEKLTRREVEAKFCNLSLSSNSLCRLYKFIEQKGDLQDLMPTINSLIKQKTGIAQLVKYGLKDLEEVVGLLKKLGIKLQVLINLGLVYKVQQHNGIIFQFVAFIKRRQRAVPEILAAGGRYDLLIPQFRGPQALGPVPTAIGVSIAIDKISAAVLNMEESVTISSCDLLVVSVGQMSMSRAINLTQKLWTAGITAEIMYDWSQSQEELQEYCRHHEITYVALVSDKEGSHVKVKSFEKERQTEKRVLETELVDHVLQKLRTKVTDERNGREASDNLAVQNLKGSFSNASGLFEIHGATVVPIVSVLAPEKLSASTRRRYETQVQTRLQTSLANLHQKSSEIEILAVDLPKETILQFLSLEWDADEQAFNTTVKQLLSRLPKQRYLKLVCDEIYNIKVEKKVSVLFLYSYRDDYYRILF

| SMILES | pIC50 (GCN2 kinase) | pIC50 (PERK kinase) |
| --- | --- | --- |
| CNc1ncc2cc(-c3cc(NS(=O)(=O)c4cccnc4)c(F)cc3C)c(C)nc2n1 [Example 1, N-(2-fluoro-4-methyl-5-(7-methyl-2-(methylamino)pyrido[2,3-d]pyrimidin-6-yl)phenyl)pyridine-3-sulfonamide] | 5.00 to 6.00 | 5.00 to 6.00 |
| CNc1cc2nc(C)c(-c3cc(NS(=O)(=O)c4cc(Cl)cnc4OC)c(F)cc3F)cc2cn1 [Example 5, 5-chloro-N-(2,4-difluoro-5-(2-methyl-7-(methylamino)-1,6-naphthyridin-3-yl)phenyl)-2-methoxypyridine-3-sulfonamide] | 6.30 to 7.00 | 6.00 to 6.30 |
| CNc1cc2nc(C)c(-c3ccc(F)c(NS(=O)(=O)c4cc(Cl)cnc4OC)c3)cc2cn1 [Example 7] | 6.00 to 6.30 | 6.30 to 7.00 |
| CNc1ncc2cc(-c3cc(NS(=O)(=O)c4cc(Cl)cnc4OC)c(F)cc3C)c(NC)nc2n1 [Example 10] | 6.00 to 6.30 | 5.00 to 6.00 |
| CNc1ncc2cc(-c3cc(NS(=O)(=O)c4cc(Cl)cnc4OC)c(F)cc3F)c(C)nc2n1 [Example 12] | 6.00 to 6.30 | 5.00 to 6.00 |
| CNc1ncc2cc(-c3cc(NS(=O)(=O)c4cc(Cl)cnc4OC)c(F)cc3F)c(NC)nc2n1 [Example 13] | 6.00 to 6.30 | 5.00 to 6.00 |
| CNc1cc2nc(C)c(-c3cc(NS(=O)(=O)c4cc(Cl)cnc4OC)c(F)cc3Br)cc2cn1 [Example 18] | 6.00 to 6.30 | 5.00 to 6.00 |
| CNc1ncc2cc(-c3ccc(F)c(NS(=O)(=O)c4cc(Cl)cnc4OC)c3)c(C)nc2n1 [Example 20] | 5.00 to 6.00 | 5.00 to 6.00 |
| CNc1ncc2cc(-c3cc(NS(=O)(=O)c4cc(Cl)cnc4OC)c(C)cc3F)c(C)nc2n1 [Example 21] | 5.00 to 6.00 | 5.00 to 6.00 |
| CNc1ncc2cc(-c3cc(NS(=O)(=O)c4cc(Cl)cnc4OC)ccc3C)c(NC)nc2n1 [Example 24] | 6.30 to 7.00 | 6.30 to 7.00 |
| COc1ncc(Cl)cc1S(=O)(=O)Nc1ccc(C)c(-c2ccc3cc(N)ncc3c2)c1 [Example 28] | 5.00 to 6.00 | 6.30 to 7.00 |
| COc1ncc(Cl)cc1S(=O)(=O)Nc1cccc(-c2ccc3cc(N)ncc3c2)c1F [Example 29] | 6.30 to 7.00 | ≥ 7.00 |
| CNc1cc2nc(C)c(-c3cc(NS(=O)(=O)c4cc(Cl)cnc4OC)ccc3C)cc2cn1 [Example 32] | ≥ 7.00 | ≥ 7.00 |
| CNc1ncc2cc(-c3cc(NS(=O)(=O)c4cc(Cl)cnc4OC)cc(F)c3C)c(NC)nc2n1 [Example 34] | ≥ 7.00 | 6.30 to 7.00 |
| CNc1ncc2cc(-c3cc(F)cc(NS(=O)(=O)c4cc(Cl)cnc4OC)c3)ccc2n1 [Example 37] | 5.00 to 6.00 |  |
| CNc1ncc2cc(-c3cc(NS(=O)(=O)c4cncc(Cl)c4)c(F)cc3C)c(C)nc2n1 [Example 42] | 5.00 to 6.00 | 5.00 to 6.00 |
| CNc1ncc2cc(-c3cccc(NS(=O)(=O)c4cc(Cl)cnc4OC)c3)ccc2n1 [Example 43] | 5.00 to 6.00 | 5.00 to 6.00 |
| CNc1ncc2cc(-c3ccc(F)c(NS(=O)(=O)c4cc(Cl)cnc4OC)c3F)c(C)nc2n1 [Example 46] | 6.30 to 7.00 | 5.00 to 6.00 |
| CNc1ncc2cc(-c3cccc(NS(=O)(=O)c4cc(Cl)cnc4OC)c3)c(C)nc2n1 [Example 47] | ≥ 7.00 | 6.30 to 7.00 |
| CNc1ncc2cc(-c3cccc(NS(=O)(=O)c4cc(Cl)cnc4OC)c3C)ccc2n1 [Example 52] | 6.30 to 7.00 | 6.30 to 7.00 |
| CNc1ncc2cc(-c3cc(NS(=O)(=O)c4cc(Cl)cnc4OC)ccc3F)ccc2n1 [Example 54] | 6.00 to 6.30 | 6.30 to 7.00 |
| CNc1ncc2cc(-c3cc(NS(=O)(=O)c4cc(Cl)cnc4OC)cc(F)c3F)ccc2n1 [Example 55] | 6.00 to 6.30 | 6.30 to 7.00 |
| CNc1cc2ncc(-c3cc(F)cc(NS(=O)(=O)c4cc(Cl)cnc4OC)c3)cc2cn1 [Example 58] | 5.00 to 6.00 | 5.00 to 6.00 |
| CNc1cc2ncc(-c3cc(NS(=O)(=O)c4cc(Cl)cnc4OC)ccc3F)cc2cn1 [Example 60] | 6.30 to 7.00 | 6.00 to 6.30 |
| CNc1ncc2cc(-c3cc(NS(=O)(=O)c4cc(Cl)cnc4OC)ccc3Cl)ccc2n1 [Example 69] | 6.30 to 7.00 | ≥ 7.00 |
| CNc1ncc2cc(-c3cccc(NS(=O)(=O)c4ccc(OC)c(Cl)c4)c3F)ccc2n1 [Example 70] | 5.00 to 6.00 | 6.30 to 7.00 |
| CNc1ncc2cc(-c3cccc(NS(=O)(=O)c4ccc(Br)c(C(F)(F)F)c4)c3F)ccc2n1 [Example 71] | 5.00 to 6.00 | 5.00 to 6.00 |

| SMILES | pIC50 (GCN2 kinase) | pIC50 (PERK kinase) |
| --- | --- | --- |
| CNc1ncc2cc(-c3cccc(NS(=O)(=O)c4cc(F)c(Br)cc4F)c3F)ccc2n1 [Example 72] | 6.30 to 7.00 | 6.30 to 7.00 |
| CNc1ncc2cc(-c3c(F)ccc(NS(=O)(=O)c4cc(Cl)cnc4OC)c3F)c(NC)nc2n1 [Example 73] | 6.30 to 7.00 | 6.30 to 7.00 |
| CNc1ncc2cc(-c3cc(NS(=O)(=O)c4cc(Cl)cc(Cl)c4)c(F)cc3C)c(C)nc2n1 [Example 75] | 6.00 to 6.30 | 6.30 to 7.00 |
| CNc1ncc2cc(-c3cc(NS(=O)(=O)c4cc(Cl)cnc4OC)ccc3C(F)(F)F)ccc2n1 [Example 76] | 5.00 to 6.00 | 5.00 to 6.00 |
| CNc1ncc2cc(-c3cc(NS(=O)(=O)c4cc(Cl)cnc4OC)ccc3C(F)(F)F)c(C)nc2n1 [Example 80] | 6.00 to 6.30 | 5.00 to 6.00 |
| CNc1ncc2cc(-c3cc(NS(=O)(=O)c4cc(Cl)cnc4OC)ccc3OC)ccc2n1 [Example 81] | 5.00 to 6.00 | 5.00 to 6.00 |
| CNc1ncc2cc(-c3cc(NS(=O)(=O)c4cc(Cl)cnc4OC)ccc3OC)c(C)nc2n1 [Example 82] | 5.00 to 6.00 | 5.00 to 6.00 |
| CNc1ncc2cc(-c3cccc(NS(=O)(=O)c4cc(Cl)cc(OC)c4Cl)c3F)ccc2n1 [Example 83] | 6.30 to 7.00 | ≥ 7.00 |
| CNc1ncc2cc(-c3cccc(NS(=O)(=O)c4ccc(OC)c(C)c4)c3F)ccc2n1 [Example 91] | 5.00 to 6.00 | 6.30 to 7.00 |
| CNc1ncc2cc(-c3cc(Cl)cc(NS(=O)(=O)c4cc(Cl)cnc4OC)c3)c(NC)nc2n1 [Example 94] | 6.00 to 6.30 | 5.00 to 6.00 |
| CNc1ncc2cc(-c3cccc(NS(=O)(=O)c4cc(Cl)cnc4OC)c3F)c(NC3COC3)nc2n1 [Example 98] | 6.30 to 7.00 | 6.00 to 6.30 |
| CNc1ncc2cc(-c3cccc(NS(=O)(=O)c4cc(Cl)cnc4OC)c3F)c(NCC3COC3)nc2n1 [Example 99] | 6.30 to 7.00 | 6.30 to 7.00 |
| CNc1ncc2cc(-c3cc(F)cc(NS(=O)(=O)c4cc(Cl)cc(C(C)(C)O)c4Cl)c3)c(NC)nc2n1 [Example 120] | 5.00 to 6.00 |  |
| CNc1nc2nc(NC(C)(C)C)ncc2cc1-c1cccc(NS(=O)(=O)c2cc(Cl)cnc2OC)c1F [Example 124] | 6.30 to 7.00 |  |
| CNc1ncc2cc(-c3cccc(NS(=O)(=O)c4cc(OC)c(Cl)cc4OC)c3F)c(NC)nc2n1 [Example 130] | 6.00 to 6.30 |  |
| CNc1ncc2cc(-c3cccc(NS(=O)(=O)c4cccnc4C(F)(F)F)c3F)c(NC)nc2n1 [Example 131] | 6.30 to 7.00 |  |
| CNc1ncc2cc(-c3cccc(NS(=O)(=O)c4cc(C(C)(C)C)ccc4OC)c3F)c(NC)nc2n1 [Example 134] | 5.00 to 6.00 |  |
| CNc1nc2nc(NC3COC3)ncc2cc1-c1cccc(NS(=O)(=O)c2cc(Cl)cnc2OC)c1F [Example 138] | 6.30 to 7.00 |  |
| CNc1nc2nc(NCCOC)ncc2cc1-c1cccc(NS(=O)(=O)c2cc(Cl)cnc2OC)c1F [Example 139] | 6.30 to 7.00 |  |
| CNc1ncc2cc(-c3cccc(NS(=O)(=O)c4cc(OC)ccc4OC)c3F)c(NC)nc2n1 [Example 140] | 6.30 to 7.00 |  |
| CNc1ncc2cc(-c3cccc(NS(=O)(=O)c4ccc(C#N)cc4Cl)c3F)c(NC)nc2n1 [Example 141] | 5.00 to 6.00 |  |
| CNc1ncc2cc(-c3cccc(NS(=O)(=O)c4cccc(C(C)=O)c4Cl)c3F)c(NC)nc2n1 [Example 146] | 6.30 to 7.00 |  |
| CNc1nc2nc(NCC3COC3)ncc2cc1-c1cccc(NS(=O)(=O)c2cc(Cl)cnc2OC)c1F [Example 149] | 6.00 to 6.30 |  |
| CNc1ncc2cc(-c3cccc(NS(=O)(=O)c4cccc(C(=O)OC)c4Cl)c3F)c(NC)nc2n1 [Example 150] | 6.00 to 6.30 |  |
| CNc1ncc2cc(-c3cccc(NS(=O)(=O)c4cc(C#N)cnc4OC)c3F)c(NC)nc2n1 [Example 152] | 6.30 to 7.00 |  |
| CNc1ncc2cc(-c3cccc(NS(=O)(=O)c4cc(Cl)c(C)cc4OC)c3F)c(NC)nc2n1 [Example 157] | ≥ 7.00 |  |
| CNc1nc2nc(NC(=O)C3CC3)ncc2cc1-c1cccc(NS(=O)(=O)c2cc(Cl)cnc2OC)c1F [Example 172] | 6.30 to 7.00 |  |

Source: patent US11912668B2, “GCN2 and perk kinase inhibitors and methods of use thereof” (Deciphera Pharmaceuticals, LLC, priority 2020, dated 2024)
